# Source: patent publication US8987195B2 (priority 2012, dated 2015)
# Tested on: HCV genotype 1b replicon
# Assay: HCV replicon assay, genotype 1b replicon EC50
# Type: cell-based, Hepatitis C virus
# Settings: Hepatitis C virus, genotype 1b replicon; read-out: EC50 [gt-1b]
# Experimental: Measuring Compound Inhibitory Potency (Genotype 1b Replicon EC50 (nM))
# Measurement of inhibition by compounds was performed using the HCV replicon system. Several different replicons encoding different HCV genotypes or mutations were used. In addition, potency measurements were made using different formats of the replicon assay, including different ways of measurements and different plating formats. See Jan M. Vrolijk et al., A replicons-based bioassay for the measurement of interferons in patients with chronic hepatitis C, 110 J. VIROLOGICAL METHODS 201 (2003); Steven S. Carroll et al., Inhibition of Hepatitis C Virus RNA Replication by 2′-Modified Nucleoside Analogs, 278(14) J. BIOLOGICAL CHEMISTRY 11979 (2003). However, the underlying principles are common to all of these determinations, and are outlined below.
# Stable neomycin phosphotransferase encoding replicon-harboring cell lines were used, so all cell lines were maintained under G418 selection prior to the assay. In some cases the cell lines encoded a luciferase:Neo^r fusion and could be assayed either directly by determination of RNA copy number, or indirectly through measurement of the luciferase activity.
# To initiate an assay, replicon cells were plated in the presence of a dilution series of test compound in the absence of G418. Typically, the assays were performed in a 96-well plate format for manual operation, or a 384 well plate in an automated assay. Replicon cells and compound were incubated for 24-48 hours, depending on the assay. At the end of the assay, cells are washed free of media and compound and then lysed. For direct quantitation, RNA levels were measured by ^32P-probe hybridization and protection, or in a TAQMAN based assay and normalized to cellular cyclophilin A RNA levels. In some cases, luciferase activity was measured using a conventional luciferase assay. In all cases EC50 determinations were calculated as a percent of a DMSO control by fitting the data to a four parameter fit function.
row,SMILES,EC50
1,"CC(C)(C)NC(=O)N[C@H]1CCCCC/C=C\[C@@H]2C[C@@]2(C(=O)NS(=O)(=O)C2(C)CC2)NC(=O)[C@@H]2C[C@]3(CCc4c(c(-c5cccc(F)c5)nc5ccccc45)O3)CN2C1=O [Example 23, (2R,6S,13aS,14aR,16aS,Z)-6-(3-tert-Butylureido)-5′-(3-fluorophenyl)-N-(1-methylcyclopropylsulfonyl)-5,16-dioxo-1′,2′,3,5,6,7,8,9,10,11,13a,14,14a,15,16,16a-hexadecahydro-1H-spiro[cyclopropa[e]pyrrolo[1,2-a][1,4]diazacyclopentadecine-2,3′-pyrano[2,3-c]quinoline]-14a-carboxamide]",9.13 nM
2,"CC1(S(=O)(=O)NC(=O)[C@@]23C[C@H]2/C=C\CCCCC[C@H](NC(=O)CC(F)(F)F)C(=O)N2C[C@@]4(CCc5c(c(-c6cccc(F)c6)nc6ccccc56)O4)C[C@H]2C(=O)N3)CC1 [Example 24, (2R,6S,13aS,14aR,16aS,Z)-5′-(3-Fluorophenyl)-N-(1-methylcyclopropylsulfonyl)-5,16-dioxo-6-(3,3,3-trifluoropropanamido)-1′,2′,3,5,6,7,8,9,10,11,13a,14,14a,15,16, 16a-hexadecahydro-1H-spiro[cyclopropa[e]pyrrolo[1,2-a][1,4]diazacyclopentadecine-2,3′-pyrano[2,3-c]quinoline]-14a-carboxamide]",5.92 nM
3,"Cc1nc2ccccc2c2c1O[C@]1(CC2)C[C@H]2C(=O)N[C@]3(C(=O)NS(=O)(=O)C4(C)CC4)C[C@H]3/C=C\CCCCC[C@H](NC(=O)NC(C)(C)C)C(=O)N2C1 [Example 76, (2R,6S,12Z,13aS,14aR,16a5)-6-[(tert-butylcarbamoyl)amino]-5′-methyl-N-[(1-methylcyclopropyl)sulfonyl]-5,16-dioxo-1,1′,2′,6,7,8,9,10,11,13a,14,15,16,16a-tetradecahydrospiro[cyclopropa[e]pyrrolo[1,2-a][1,4]diazacyclopentadecine-2,3′-pyrano[2,3-c]quinoline]-14a(5H)-carboxamide]",11.9 nM
4,"CC(C)(C)OC(=O)N[C@H]1CCCCC/C=C\[C@@H]2C[C@@]2(C(=O)O)NC(=O)[C@@H]2C[C@]3(CCc4c(c(-c5cccc(F)c5)nc5ccccc45)O3)CN2C1=O [Example 77, (2R,6S,12Z,13aS,14aR,16aS)-6-[(tert-butoxycarbonyl)amino]-5′-(3-fluorophenyl)-5,16-dioxo-1,1′,2′,6,7,8,9,10,11,13a,14,15,16,16a-tetradecahydrospiro[cyclopropa[e]pyrrolo[1,2-a][1,4]diazacyclopentadecine-2,3′-pyrano[2,3-c]quinoline]-14a(5H)-carboxylic acid]",> 100 nM
5,"Cc1nc2ccccc2c2c1O[C@]1(CC2)C[C@H]2C(=O)N[C@]3(C(=O)NS(=O)(=O)C4(C)CC4)C[C@H]3/C=C\CCCCC[C@H](NC(=O)OC3(C)CCC3)C(=O)N2C1 [Example 80, 1-methylcyclobutyl [(2R,6S,12Z,13aS,14aR,16aS)-5′-methyl-14a-{[(1-methylcyclopropyl)sulfonyl]carbamoyl}-5,16-dioxo-1,1′,2′,5,6,7,8,9,10,11,13a,14,14a,15,16,16a-hexadecahydrospiro[cyclopropa[e]pyrrolo[1,2-a][1,4]diazacyclopentadecine-2,3′-pyrano[2,3-c]quinolin]-6-yl]carbamate]",1.47 nM
6,"CC1(S(=O)(=O)NC(=O)[C@@]23C[C@H]2/C=C\CCCCC[C@H](NC(=O)OC2CCCC2)C(=O)N2C[C@@]4(CCc5c(c(-c6cccc(F)c6)nc6ccccc56)O4)C[C@H]2C(=O)N3)CC1 [Example 81, cyclopentyl [(2R,6S,12Z,13aS,14aR,16aS)-5′-(3-fluorophenyl)-14a-{[(1-methylcyclopropyl)sulfonyl]carbamoyl}-5,16-dioxo-1,1′,2′,5,6,7,8,9,10,11,13a,14,14a,15,16,16a-hexadecahydrospiro[cyclopropa[e]pyrrolo[1,2-a][1,4]diazacyclopentadecine-2,3′-pyrano[2,3-c]quinolin]-6-yl]carbamate]",1.33 nM
7,"CC1(S(=O)(=O)NC(=O)[C@@]23C[C@H]2/C=C\CCCCC[C@H](NC(=O)NC2CCCC2)C(=O)N2C[C@@]4(CCc5c(c(-c6cccc(F)c6)nc6ccccc56)O4)C[C@H]2C(=O)N3)CC1 [Example 82, (2R,6S,12Z,13aS,14aR,16aS)-6-[(cyclopentylcarbamoyl)amino]-5′-(3-fluorophenyl)-N-[(1-methylcyclopropyl)sulfonyl]-5,16-dioxo-1,1′,2′,6,7,8,9,10,11,13a,14,15,16,16a-tetradecahydrospiro[cyclopropa[e]pyrrolo[1,2-a][1,4]diazacyclopentadecine-2,3′-pyrano[2,3-c]quinoline]-14a(5H)-carboxamide]",4.25 nM
8,"CC1(S(=O)(=O)NC(=O)[C@@]23C[C@H]2/C=C\CCCCC[C@H](NC(=O)NC2CCCCC2)C(=O)N2C[C@@]4(CCc5c(c(-c6cccc(F)c6)nc6ccccc56)O4)C[C@H]2C(=O)N3)CC1 [Example 83, (2R,6S,12Z,13aS,14aR,16aS)-6-[(cyclohexylcarbamoyl)amino]-5′-(3-fluorophenyl)-N-[(1-methylcyclopropyl)sulfonyl]-5,16-dioxo-1,1′,2′,6,7,8,9,10,11,13a,14,15,16,16a-tetradecahydrospiro[cyclopropa[e]pyrrolo[1,2-a][1,4]diazacyclopentadecine-2,3′-pyrano[2,3-c]quinoline]-14a(5H)-carboxamide]",3.71 nM

# Same assay, conditions: genotype 1b replicon; read-out: EC50 [gt-1b]
row,SMILES,EC50
1,"COc1ccc2nc(C(F)(F)F)c3c(c2c1)[C@H](OC(=O)NS(=O)(=O)C1(C)CC1)C[C@]1(C[C@H]2C(=O)N[C@]4(C(=O)NS(=O)(=O)C5(C)CC5)C[C@H]4/C=C\CCCCC[C@H](NC(=O)OC(C)(C)C)C(=O)N2C1)O3 [Example 52, tert-Butyl ((1′R,2S,6S,13aS,14aR,16aS,Z)-9′-methoxy-14a-(((1-methylcyclopropyl)sulfonyl)carbamoyl)-1′-((((1-methylcyclopropyl)sulfonyl)carbamoyl)oxy)-5,16-dioxo-5′-(trifluoromethyl)-1′,2′,3,5,6,7,8,9,10,11,13a,14,14a,15,16,16a-hexadecahydro-1H-spiro[cyclopropa[e]pyrrolo[1,2-a][1,4]diazacyclopentadecine-2,3′-pyrano[2,3-c]quinolin]-6-yl)carbamate]",1.77 nM
2,"COc1ccc2nc(C(F)(F)F)c3c(c2c1)[C@H](OC(=O)NS(=O)(=O)C1(C)CC1)C[C@]1(C[C@H]2C(=O)N[C@]4(C(=O)NS(=O)(=O)C5(C)CC5)C[C@H]4/C=C\CCCCC[C@H](NC(=O)OC(C)(C)C)C(=O)N2C1)O3 [Example 53, tert-Butyl ((1′R,2S,6S,13aS,14aR,16aS,Z)-9′-methoxy-14a-(((1-methylcyclopropyl)sulfonyl)carbamoyl)-1′-((((1-methylcyclopropyl)sulfonyl)carbamoyl)oxy)-5,16-dioxo-5′-(trifluoromethyl)-1′,2′,3,5,6,7,8,9,10,11,13a,14,14a,15,16,16a-hexadecahydro-1H-spiro[cyclopropa[e]pyrrolo[1,2-a][1,4]diazacyclopentadecine-2,3′-pyrano[2,3-c]quinolin]-6-yl)carbamate]",15.9 nM
